Measured values as given in PMC7413254 (Nature Communications, 2020).
Where two headings read alike, the source gives them in different places.

Tests used:
PfCRT^Ecu1110 [1] = biological target: T1, PfCRT^Ecu1110 (Plasmodium falciparum, UniProt Q9N623, A220S/I356L/K76T/N326D); assay: [3H]CQ uptake into Xenopus oocytes, cis-inhibition by unlabelled solute; format: cell-based
Procedure, shortened: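 Assay buffer ND96 (10 mM MES, 10 mM Tris-base) held at pH 5.5 to mimic vacuole lumen; uptake measured inward from this acidic medium over 1.5 h at 27.5 °C.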

non-expressing oocytes = format: cell-based, Xenopus laevis; details: total [3H]CQ transport; for Uptake of [3H]CQ (% non-expressing oocyte control), trans-stimulation: non-expressing oocytes, normalised to the oocyte type control; for Uptake of [3H]CQ (% PfCRTDd2 control), trans-stimulation, non-expressing oocytes: mean ± SEM, SEM
Procedure, shortened: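 Oocytes (ten per treatment, ≥4 independent frogs/days) were preloaded by injecting VF-6 in 25 nL ND96 at pH 5.0, 5.5, 6.0 or 7.0, or Na^+-free choline buffer, then uptake run 1.5 h, 27.5 °C, ND96 pH 5.5 by default. Internal concentrations assumed ~400 nL oocyte volume.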

PfCRT^Dd2 = PfCRT^Dd2 (Plasmodium falciparum, UniProt Q9N623, A220S/I356T/K76T/M74I/N326S/N75E/Q271E/R371I); assay: cell-based; format: cell-based; details: […]; for activity at 45000 µM: [test solute]i = 45 mM (30 mM for some solutes due to solubility)
Procedure, shortened: (§1)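 Transport measured in Xenopus oocytes expressing the transporters, 1.5 h at 27.5 °C in ND96 pH 5.5 unless noted. For trans-stimulation, VF-6 injected in 25 nL ND96 at pH 5.0–7.0 or Na^+-free (choline) buffer; intracellular levels based on ~400 nL oocyte volume. Ten oocytes per treatment, ≥4 experiments.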

PfCRT^3D7 = PfCRT^3D7 (Plasmodium falciparum, UniProt Q8IBZ9); assay: cell-based; format: cell-based
Procedure, shortened: as §1

PfCRT^Ecu1110 [2] = biological target: T1, PfCRT^Ecu1110; assay: cell-based; format: cell-based; details: […]
Procedure, shortened: as §1

PfNT1 = biological target: T2, PfNT1 (Plasmodium falciparum, UniProt Q8IDM6); assay: cell-based; format: cell-based; details: for activity at 5000 µM: total [3H]CQ transport
T2 construct: expressed in transfected cells; host or cells: Xenopus laevis oocytes (stage V-VI), cRNA-injected
Procedure, shortened: as §1

PfCRT = assay: Influx of VF-6 via PfCRT into the oocyte, solutes tested as potential co-substrates; format: cell-based, Plasmodium falciparum; set-up: key: X: Compounds that have been tested as potential co-substrates but are not required for influx of VF-6 via PfCRT into the oocyte; details: X marks the solute
[3] = read-out: [3H]CQ transport (% PfCRTEcu1110 control), cis-inhibition, PfCRTEcu1110, SEM

Sequence of PfCRT^Dd2 (Q9N623 whole entry A220S/I356T/K76T/M74I/N326S/N75E/Q271E/R371I): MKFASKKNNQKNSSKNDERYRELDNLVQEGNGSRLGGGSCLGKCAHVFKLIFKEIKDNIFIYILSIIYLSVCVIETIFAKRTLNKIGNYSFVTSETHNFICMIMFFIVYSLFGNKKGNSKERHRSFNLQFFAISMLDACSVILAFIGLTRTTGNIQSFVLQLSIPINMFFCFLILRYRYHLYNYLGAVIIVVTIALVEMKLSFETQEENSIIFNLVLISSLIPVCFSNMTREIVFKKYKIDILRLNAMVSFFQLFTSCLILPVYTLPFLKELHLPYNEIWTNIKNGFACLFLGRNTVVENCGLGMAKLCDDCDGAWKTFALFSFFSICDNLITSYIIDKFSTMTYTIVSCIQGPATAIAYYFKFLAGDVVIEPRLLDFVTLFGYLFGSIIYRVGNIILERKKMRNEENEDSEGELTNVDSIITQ
T2 sequence (Q8IDM6 whole entry): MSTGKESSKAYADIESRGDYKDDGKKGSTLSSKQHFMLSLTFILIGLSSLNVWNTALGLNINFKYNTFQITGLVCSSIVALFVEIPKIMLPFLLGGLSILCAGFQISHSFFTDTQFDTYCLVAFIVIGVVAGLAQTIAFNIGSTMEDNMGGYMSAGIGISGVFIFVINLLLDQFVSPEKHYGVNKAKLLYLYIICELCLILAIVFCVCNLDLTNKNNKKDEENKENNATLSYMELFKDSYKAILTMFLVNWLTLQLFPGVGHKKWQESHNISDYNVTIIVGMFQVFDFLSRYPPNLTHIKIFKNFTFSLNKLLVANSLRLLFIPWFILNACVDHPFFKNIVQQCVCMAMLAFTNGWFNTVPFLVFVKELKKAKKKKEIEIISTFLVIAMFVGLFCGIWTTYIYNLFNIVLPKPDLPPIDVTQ
T1 sequence (Q9N623 whole entry A220S/I356L/K76T/N326D): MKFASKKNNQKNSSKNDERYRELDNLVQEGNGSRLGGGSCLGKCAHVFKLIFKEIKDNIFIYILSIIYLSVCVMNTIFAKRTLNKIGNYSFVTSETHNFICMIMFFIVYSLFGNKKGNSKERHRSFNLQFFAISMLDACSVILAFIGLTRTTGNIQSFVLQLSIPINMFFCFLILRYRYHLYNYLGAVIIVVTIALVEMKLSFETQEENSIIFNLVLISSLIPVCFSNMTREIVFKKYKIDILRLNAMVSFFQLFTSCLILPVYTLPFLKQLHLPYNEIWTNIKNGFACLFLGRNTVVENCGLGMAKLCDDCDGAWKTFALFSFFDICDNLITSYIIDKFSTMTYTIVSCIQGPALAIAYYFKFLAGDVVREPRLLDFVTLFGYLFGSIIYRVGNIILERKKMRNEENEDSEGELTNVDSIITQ
Sequence of PfCRT^3D7 (Q8IBZ9 59-398): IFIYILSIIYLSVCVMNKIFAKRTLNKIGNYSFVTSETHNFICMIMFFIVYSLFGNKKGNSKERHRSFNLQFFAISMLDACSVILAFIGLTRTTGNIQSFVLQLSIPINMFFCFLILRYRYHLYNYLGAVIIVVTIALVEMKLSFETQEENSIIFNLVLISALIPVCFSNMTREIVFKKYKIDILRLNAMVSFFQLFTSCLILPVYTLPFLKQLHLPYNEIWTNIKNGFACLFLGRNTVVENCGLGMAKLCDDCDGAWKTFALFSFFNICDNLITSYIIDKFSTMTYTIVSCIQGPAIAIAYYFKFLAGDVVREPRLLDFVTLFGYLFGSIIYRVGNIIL

For `CC(C)[C@H](N)C(=O)O` [L-valine], the inhibition at 2000 µM (PfCRT^Ecu1110 [1]; read-out: Uptake of [3H]CQ (% PfCRTEcu1110 control), cis-inhibition) was 96 ± 1.5%, the inhibition at 500 µM (PfCRT^Ecu1110 [1]; [3]) was 30 ± 0.6% and the inhibition at 1000 µM (PfCRT^Ecu1110 [1]; [3]) was 29 ± 1.4%. The inhibition at 2000 µM (PfCRT^Ecu1110 [1]; [3]) was 28 ± 0.4%, the “Uptake of [3H]CQ (% non-expressing oocyte control), trans-stimulation” value (non-expressing oocytes; [test solute]i = 5 mM) was 99 ± 4.1 % non-expressing oocyte control and the “Uptake of [3H]CQ (% non-expressing oocyte control), trans-stimulation” value (non-expressing oocytes; [test solute]i = 45 mM (30 mM for some solutes due to solubility)) was 100 ± 2.6 % non-expressing oocyte control. The “Uptake of [3H]CQ (% PfCRTDd2 control), trans-stimulation, non-expressing oocytes” value (non-expressing oocytes; [test solute]i = 5 mM (intracellular)) was 2.6 ± 0.08 % PfCRTDd2 control, the “Uptake of [3H]CQ (% PfCRTDd2 control), trans-stimulation, non-expressing oocytes” value (non-expressing oocytes; [test solute]i = 45 mM (intracellular; 30 mM for some solutes due to solubility)) was 2.7 ± 0.03 % PfCRTDd2 control and the activity at 5000 µM (PfCRT^Dd2; pH 5.5, read-out: PfCRT-mediated [3H]CQ transport, trans-stimulation (% PfCRTDd2 control), [test solute]i = 5 mM (intracellular), PfCRTDd2 oocytes, normalised to oocyte type control) was 97 ± 4.2%. The activity at 5000 µM (PfCRT^Dd2; pH 5.5, read-out: Uptake of [3H]CQ (% PfCRTDd2 control), trans-stimulation, PfCRTDd2, total [3H]CQ transport, [test solute]i = 5 mM (intracellular), mean ± SEM, SEM) was 99 ± 3.2%, the activity at 5000 µM (PfCRT^Dd2; pH 5.5, read-out: Uptake of [3H]CQ (% PfCRTDd2 control), trans-stimulation, PfCRTDd2 oocytes, [test solute]i = 5 mM, total [3H]CQ transport, normalised to the oocyte type control) was 99 ± 3.2% and the activity at 45000 µM (PfCRT^Dd2; pH 5.5, read-out: Uptake of [3H]CQ (% PfCRTDd2 control), trans-stimulation, PfCRTDd2 oocytes, total [3H]CQ transport, normalised to the oocyte type control) was 97 ± 1.1%. It also gave an activity at 5000 µM (PfCRT^Dd2; pH 5.5, read-out: [3H]CQ transport (% PfCRTDd2 control), trans-stimulation, PfCRTDd2, trans-stimulation, [test solute]i = 5 mM (injected), PfCRT-mediated component (background subtracted), mean ± SEM, SEM) of 97 ± 4.2%, an activity at 45000 µM (PfCRT^Dd2; pH 5.5, read-out: [3H]CQ transport (% PfCRTDd2 control), trans-stimulation, PfCRTDd2, trans-stimulation, PfCRT-mediated component (background subtracted), mean ± SEM, SEM) of 95 ± 2.5% and an activity at 5000 µM (PfCRT^3D7; PfCRT3D7 oocytes, [test solute]i = 5 mM, total [3H]CQ transport, normalised to the oocyte type control, read-out: Uptake of [3H]CQ (% PfCRT3D7 control), trans-stimulation) of 98 ± 4.2%. For the same compound, the “[3H]CQ transport (% PfCRT3D7 control), trans-stimulation, PfCRT3D7” value (PfCRT^3D7; SEM) was 0.3 ± 0.01 % PfCRT3D7 control, the activity at 5000 µM (PfCRT^3D7; [test solute]i = 5 mM (intracellular), PfCRT3D7 oocytes, normalised to oocyte type control, read-out: PfCRT-mediated [3H]CQ transport, trans-stimulation (% PfCRT3D7 control)) was 96 ± 3.3% and the activity at 45000 µM (PfCRT^3D7; SEM, read-out: Uptake of [3H]CQ (% PfCRTDd2 control), trans-stimulation, PfCRT3D7) was 3.3 ± 0.01%. For the same compound, the activity at 45000 µM (PfCRT^3D7; read-out: PfCRT-mediated [3H]CQ transport, trans-stimulation (% PfCRT3D7 control)) was 96 ± 2.4%, the activity at 45000 µM (PfCRT^3D7; read-out: Uptake of [3H]CQ (% PfCRT3D7 control), trans-stimulation) was 98 ± 3.7% and the activity at 5000 µM (PfCRT^3D7; total [3H]CQ transport, [test solute]i = 5 mM (intracellular), mean ± SEM, SEM, read-out: Uptake of [3H]CQ (% PfCRTDd2 control), trans-stimulation, PfCRT3D7) was 3.3 ± 0.05%. The activity at 5000 µM (PfCRT^Ecu1110 [2]; pH 5.5, read-out: PfCRT-mediated [3H]CQ transport, trans-stimulation (% PfCRTEcu1110 control), [test solute]i = 5 mM (intracellular), PfCRTEcu1110 oocytes, normalised to oocyte type control) was 96 ± 3.3%, the activity at 5000 µM (PfCRT^Ecu1110 [2]; pH 5.5, read-out: Uptake of [3H]CQ (% PfCRTEcu1110 control), trans-stimulation, PfCRTEcu1110 oocytes, [test solute]i = 5 mM, total [3H]CQ transport, normalised to the oocyte type control) was 98 ± 3.6% and the activity at 45000 µM (PfCRT^Ecu1110 [2]; pH 5.5, read-out: Uptake of [3H]CQ (% PfCRTEcu1110 control), trans-stimulation, PfCRTEcu1110 oocytes, [test solute]i = 45 mM (30 mM for some solutes due to solubility), total [3H]CQ transport, normalised to the oocyte type control) was 100 ± 2.5%. For the same compound, the activity at 5000 µM (PfCRT^Ecu1110 [2]; read-out: Uptake of [3H]CQ (% PfCRTDd2 control), trans-stimulation, PfCRTEcu1110, total [3H]CQ transport, [test solute]i = 5 mM (intracellular), mean ± SEM, SEM) was 35 ± 1.6%, the activity at 45000 µM (PfCRT^Ecu1110 [2]; read-out: Uptake of [3H]CQ (% PfCRTDd2 control), trans-stimulation, PfCRTEcu1110, total [3H]CQ transport, [test solute]i = 45 mM (intracellular; 30 mM for some solutes due to solubility), mean ± SEM, SEM) was 36 ± 1.4% and the activity at 5000 µM (PfNT1; PfNT1 oocytes, [test solute]i = 5 mM, normalised to the oocyte type control, read-out: Uptake of [3H]CQ (% PfNT1 control), trans-stimulation) was 99 ± 2.9%. The activity at 45000 µM (PfNT1; SEM, read-out: Uptake of [3H]CQ (% PfCRTDd2 control), trans-stimulation, PfNT1) was 2.9 ± 0.04%, the activity at 45000 µM (PfNT1; read-out: Uptake of [3H]CQ (% PfNT1 control), trans-stimulation) was 100 ± 3.2% and the activity at 5000 µM (PfNT1; [test solute]i = 5 mM (intracellular), mean ± SEM, SEM, read-out: Uptake of [3H]CQ (% PfCRTDd2 control), trans-stimulation, PfNT1) was 2.7 ± 0.01%. For the same compound, the “Compounds that have been tested as potential co-substrates but are not required for influx of VF-6 via PfCRT into the oocyte” value (PfCRT) was “X”.
